Results taken from US6737383B1, “Herbicidal oxadiazolidines” (priority 1999, dated 2004).

Assays:
bedstraw = assay: Test B pre/postemergence bedstraw; assay type: in vivo, Galium aparine
Outline: (§1)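 Herbicidal effect was estimated by eye on a ten-point control scale after plants spent twelve to sixteen days in a greenhouse following soil or foliar treatment. Foliar sprays targeted plants at one to four leaves; all doses were formulated in a non-phytotoxic solvent with surfactant.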

blackgrass = assay: Test B pre/postemergence blackgrass; assay type: in vivo, Alopecurus myosuroides
Outline: as §1

surinam grass = assay: Test B pre/postemergence surinam grass; assay type: in vivo, Brachiaria decumbens
Outline: as §1

cocklebur = assay: Test B pre/postemergence cocklebur; assay type: in vivo, Xanthium strumarium
Outline: as §1

corn = assay: Test B pre/postemergence corn; assay type: in vivo, Zea mays
Outline: as §1

crabgrass = assay: Test B pre/postemergence crabgrass; assay type: in vivo, Digitaria sanguinalis
Outline: as §1

giant foxtail = assay: Test B pre/postemergence giant foxtail; assay type: in vivo, Setaria faberii
Outline: as §1

rape = assay: Test B pre/postemergence rape; assay type: in vivo, Brassica napus
Outline: as §1

soybean = assay: Test B pre/postemergence soybean; assay type: in vivo, Glycine max
Outline: as §1

sugar beet = assay: Test B pre/postemergence sugar beet; assay type: in vivo, Beta vulgaris
Outline: as §1

velvetleaf = assay: Test B pre/postemergence velvetleaf; assay type: in vivo, Abutilon theophrasti
Outline: as §1

wheat = assay: Test B pre/postemergence wheat; assay type: in vivo, Triticum aestivum
Outline: as §1

purple nutsedge = assay: Test B pre/postemergence purple nutsedge; assay type: in vivo, Cyperus rotundus
Outline: as §1

rice = assay: Test B flood test rice; assay type: in vivo, Oryza sativa
Outline: (§2)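 Plants were grown to the 2-leaf stage before treatment with test chemical, then held in a greenhouse for twelve to sixteen days. Injury was visually rated against untreated controls on a 0–10 scale, where 0 is no effect and 10 is complete control.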

smallflower flatsedge = assay: Test B flood test smallflower flatsedge; assay type: in vivo, Cyperus difformis
Outline: as §2

duck salad = assay: Test B flood test duck salad; assay type: in vivo, Heteranthera limosa
Outline: as §2

bamyardgrass = assay: Test B flood test barnyardgrass; assay type: in vivo, Echinochloa crus-galli
Outline: as §2

[1] = Preemergence, Rate 62 g/ha, scale of 0 to 10 where 0 is no effect and 10 is complete control
[2] = Preemergence, Rate 250 g/ha, scale of 0 to 10 where 0 is no effect and 10 is complete control
[3] = Preemergence, Rate 500 g/ha, scale of 0 to 10 where 0 is no effect and 10 is complete control
[4] = Rate 62 g/ha, Postemergence, scale of 0 to 10 where 0 is no effect and 10 is complete control
[5] = Rate 125 g/ha, Postemergence, scale 0 to 10
[6] = Rate 125 g/ha, Preemergence, scale of 0 to 10 where 0 is no effect and 10 is complete control
[7] = Rate 500 g/ha, Postemergence, scale 0 to 10, 0 no effect, 10 complete control
[8] = Rate 62 g/ha, headed Pre-emergence (flood test species), scale 0 to 10 (0 no effect, 10 complete control)
[9] = Rate 125 g/ha, Pre-emergence, flood test species, scale 0 to 10 where 0 is no effect and 10 is complete control
[10] = Rate 250 g/ha, Pre-emergence, flood-test species, scale 0 to 10, 0 is no effect, 10 is complete control
[11] = Rate 500 g/ha, Pre-emergence, flood test species, scale 0 to 10 (0 no effect, 10 complete control)

CCc1ccc(N(C(=O)n2oc(=O)n(-c3ccccc3C)c2=O)C(C)C)cc1 [Compound 230]
5: Soybean plant response rating (soybean; [7])
1: Crabgrass plant response rating (crabgrass; [1]) | Crabgrass plant response rating (crabgrass; [6]) | Giant foxtail plant response rating (giant foxtail; [7])
9: Plant response rating, Crabgrass (crabgrass; [3]) | Plant response rating, Giant foxtail (giant foxtail; [3])
8: Giant foxtail plant response rating (giant foxtail; [2])
2: Plant response rating, Blackgrass (blackgrass; [3]) | Crabgrass plant response rating (crabgrass; [7]) | Giant foxtail plant response rating (giant foxtail; [1]) | Giant foxtail plant response rating (giant foxtail; [6])
4: Plant response rating (0 to 10; 0 is no effect, 10 is complete control), Soybean (soybean; Rate 250 g/ha, Postemergence)
0: Bedstraw plant response rating (bedstraw; [1]) | Bedstraw plant response rating (bedstraw; [2]) | Plant response rating, Bedstraw (bedstraw; [3]) | Bedstraw plant response rating (bedstraw; [4]) | Bedstraw plant response rating (bedstraw; [5]) | Bedstraw plant response rating (bedstraw; [6]) | Plant response rating (0 to 10; 0 is no effect, 10 is complete control), Bedstraw (bedstraw; Rate 250 g/ha, Postemergence) | Bedstraw plant response rating (bedstraw; [7]) | Blackgrass plant response rating (blackgrass; [1]) | Blackgrass plant response rating (blackgrass; [2]) | Blackgrass plant response rating (blackgrass; [4]) | Blackgrass plant response rating (blackgrass; [5]) | Blackgrass plant response rating (blackgrass; [6]) | Plant response rating (0 to 10; 0 is no effect, 10 is complete control), Blackgrass (blackgrass; Rate 250 g/ha, Postemergence) | Blackgrass plant response rating (blackgrass; [7]) | B. signalgrass plant response rating (surinam grass; [1]) | B. signalgrass plant response rating (surinam grass; Preemergence, Rate 250 g/ha, scale 0 to 10, 0 is no effect, 10 is complete control) | Plant response rating, B. signalgrass (surinam grass; [3]) | B. signalgrass plant response rating (surinam grass; [4]) | B. signalgrass plant response rating (surinam grass; Rate 125 g/ha, Postemergence, scale 0 (no effect) to 10 (complete control)) | B. signalgrass plant response rating (surinam grass; [6]) | Plant response rating (0 to 10; 0 is no effect, 10 is complete control), B. signalgrass (surinam grass; Rate 250 g/ha, Postemergence) | B. signalgrass plant response rating (surinam grass; [7]) | Cocklebur plant response rating (cocklebur; [1]) | Cocklebur plant response rating (cocklebur; [2]) | Plant response rating, Cocklebur (cocklebur; [3]) | Cocklebur plant response rating (cocklebur; [4]) | Cocklebur plant response rating (cocklebur; [5]) | Cocklebur plant response rating (cocklebur; [6]) | Plant response rating (0 to 10; 0 is no effect, 10 is complete control), Cocklebur (cocklebur; Rate 250 g/ha, Postemergence) | Cocklebur plant response rating (cocklebur; [7]) | Corn plant response rating (corn; [1]) | Corn plant response rating (corn; [2]) | Plant response rating, Corn (corn; [3]) | Corn plant response rating (corn; [4]) | Corn plant response rating (corn; [5]) | Corn plant response rating (corn; [6]) | Plant response rating (0 to 10; 0 is no effect, 10 is complete control), Corn (corn; Rate 250 g/ha, Postemergence) | Corn plant response rating (corn; [7]) | Crabgrass plant response rating (crabgrass; [4]) | Crabgrass plant response rating (crabgrass; [5]) | Plant response rating (0 to 10; 0 is no effect, 10 is complete control), Crabgrass (crabgrass; Rate 250 g/ha, Postemergence) | Giant foxtail plant response rating (giant foxtail; [4]) | Giant foxtail plant response rating (giant foxtail; [5]) | Plant response rating (0 to 10; 0 is no effect, 10 is complete control), Giant foxtail (giant foxtail; Rate 250 g/ha, Postemergence) | Rape plant response rating (rape; [1]) | Rape plant response rating (rape; [2]) | Plant response rating, Rape (rape; [3]) | Rape plant response rating (rape; [4]) | Rape plant response rating (rape; [5]) | Rape plant response rating (rape; [6]) | Plant response rating (0 to 10; 0 is no effect, 10 is complete control), Rape (rape; Rate 250 g/ha, Postemergence) | Rape plant response rating (rape; [7]) | Soybean plant response rating (soybean; [1]) | Soybean plant response rating (soybean; [2]) | Plant response rating, Soybean (soybean; [3]) | Soybean plant response rating (soybean; [4]) | Soybean plant response rating (soybean; [5]) | Soybean plant response rating (soybean; [6]) | Sugarbeets plant response rating (sugar beet; [1]) | Sugarbeets plant response rating (sugar beet; [2]) | Plant response rating, Sugarbeets (sugar beet; [3]) | Sugarbeets plant response rating (sugar beet; [4]) | Sugarbeets plant response rating (sugar beet; [5]) | Sugarbeets plant response rating (sugar beet; [6]) | Plant response rating (0 to 10; 0 is no effect, 10 is complete control), Sugarbeets (sugar beet; Rate 250 g/ha, Postemergence) | Sugarbeets plant response rating (sugar beet; [7]) | Velvetleaf plant response rating (velvetleaf; [1]) | Velvetleaf plant response rating (velvetleaf; [2]) | Plant response rating, Velvetleaf (velvetleaf; [3]) | Velvetleaf plant response rating (velvetleaf; [4]) | Velvetleaf plant response rating (velvetleaf; [5]) | Velvetleaf plant response rating (velvetleaf; [6]) | Plant response rating (0 to 10; 0 is no effect, 10 is complete control), Velvetleaf (velvetleaf; Rate 250 g/ha, Postemergence) | Velvetleaf plant response rating (velvetleaf; [7]) | Wheat plant response rating (wheat; [1]) | Wheat plant response rating (wheat; [2]) | Plant response rating, Wheat (wheat; [3]) | Wheat plant response rating (wheat; [4]) | Wheat plant response rating (wheat; [5]) | Wheat plant response rating (wheat; [6]) | Plant response rating (0 to 10; 0 is no effect, 10 is complete control), Wheat (wheat; Rate 250 g/ha, Postemergence) | Wheat plant response rating (wheat; [7]) | Nutsedge plant response rating (purple nutsedge; [1]) | Nutsedge plant response rating (purple nutsedge; [2]) | Plant response rating, Nutsedge (purple nutsedge; [3]) | Nutsedge plant response rating (purple nutsedge; [4]) | Nutsedge plant response rating (purple nutsedge; [5]) | Nutsedge plant response rating (purple nutsedge; [6]) | Plant response rating (0 to 10; 0 is no effect, 10 is complete control), Nutsedge (purple nutsedge; Rate 250 g/ha, Postemergence) | Nutsedge plant response rating (purple nutsedge; [7]) | Rice plant response rating (rice; [8]) | Rice plant response rating (rice; [9]) | Rice plant response rating (rice; [10]) | Rice plant response rating (rice; [11]) | S. Flatsedge plant response rating (smallflower flatsedge; [8]) | S. Flatsedge plant response rating (smallflower flatsedge; [9]) | S. Flatsedge plant response rating (smallflower flatsedge; [10]) | S. Flatsedge plant response rating (smallflower flatsedge; [11]) | Ducksalad plant response rating (duck salad; [8]) | Ducksalad plant response rating (duck salad; [9]) | Ducksalad plant response rating (duck salad; [10]) | Ducksalad plant response rating (duck salad; [11]) | Barnyardgrass plant response rating (bamyardgrass; [8]) | Barnyardgrass plant response rating (bamyardgrass; [9]) | Barnyardgrass plant response rating (bamyardgrass; [10]) | Barnyardgrass plant response rating (bamyardgrass; [11])
7: Crabgrass plant response rating (crabgrass; [2])
